Patent US20230365546A1, “5-SUBSTITUTED INDOLE 3-AMIDE DERIVATIVES, PREPARATION METHOD AND USE THEREOF” (ORIGIANT PHARMACEUTICAL CO., LTD, priority 2020, published 2023)
Several values for one entry are separate records, joined by “and”; a condition that tells them apart may be missing. Identical values can stand only once.

Legend:
Assay in all cases: Kinase Profiler 10 μM panel
PTK5(h) = PTK5(h) (Homo sapiens (Human), UniProt P42685)
Description: (§1) In vitro kinase assays were conducted using Kinase Profiler services provided by Eurofins. The experimental method was as follows: the small molecule compound to be tested (0.001-10 μM), the protein kinase to be tested were incubated with a buffer containing substrate, 10 mM magnesium acetate, and [γ-^33P-ATP], the reaction was started by adding Mg\TPmix, after incubation for a period of time at room temperature, a 3% phosphate solution was added to the buffer to stop the reaction. Subsequently, 10 μL of the reaction mixture was quantitatively pipetted onto P30 filter paper, which was washed three times with 75 mM phosphate solution and then once with methanol. The P30 filter paper was air-dried and scintillation fluid was added for scintillation counting.

PKCζ(h) = PKCζ(h) (Homo sapiens (Human), UniProt Q05513)
Description: as §1

JAK2(h) = JAK2(h) (Homo sapiens (Human), UniProt O60674)
Description: as §1

CDKL2(h) = CDKL2(h) (Homo sapiens (Human), UniProt Q92772)
Description: as §1

LOK(h) = LOK(h) (Homo sapiens (Human), UniProt O94804)
Description: as §1

PI3KC2g(h) = PI3KC2g(h) (Homo sapiens (Human), UniProt O75747)
Sequence of PI3KC2g(h) (O75747 whole entry): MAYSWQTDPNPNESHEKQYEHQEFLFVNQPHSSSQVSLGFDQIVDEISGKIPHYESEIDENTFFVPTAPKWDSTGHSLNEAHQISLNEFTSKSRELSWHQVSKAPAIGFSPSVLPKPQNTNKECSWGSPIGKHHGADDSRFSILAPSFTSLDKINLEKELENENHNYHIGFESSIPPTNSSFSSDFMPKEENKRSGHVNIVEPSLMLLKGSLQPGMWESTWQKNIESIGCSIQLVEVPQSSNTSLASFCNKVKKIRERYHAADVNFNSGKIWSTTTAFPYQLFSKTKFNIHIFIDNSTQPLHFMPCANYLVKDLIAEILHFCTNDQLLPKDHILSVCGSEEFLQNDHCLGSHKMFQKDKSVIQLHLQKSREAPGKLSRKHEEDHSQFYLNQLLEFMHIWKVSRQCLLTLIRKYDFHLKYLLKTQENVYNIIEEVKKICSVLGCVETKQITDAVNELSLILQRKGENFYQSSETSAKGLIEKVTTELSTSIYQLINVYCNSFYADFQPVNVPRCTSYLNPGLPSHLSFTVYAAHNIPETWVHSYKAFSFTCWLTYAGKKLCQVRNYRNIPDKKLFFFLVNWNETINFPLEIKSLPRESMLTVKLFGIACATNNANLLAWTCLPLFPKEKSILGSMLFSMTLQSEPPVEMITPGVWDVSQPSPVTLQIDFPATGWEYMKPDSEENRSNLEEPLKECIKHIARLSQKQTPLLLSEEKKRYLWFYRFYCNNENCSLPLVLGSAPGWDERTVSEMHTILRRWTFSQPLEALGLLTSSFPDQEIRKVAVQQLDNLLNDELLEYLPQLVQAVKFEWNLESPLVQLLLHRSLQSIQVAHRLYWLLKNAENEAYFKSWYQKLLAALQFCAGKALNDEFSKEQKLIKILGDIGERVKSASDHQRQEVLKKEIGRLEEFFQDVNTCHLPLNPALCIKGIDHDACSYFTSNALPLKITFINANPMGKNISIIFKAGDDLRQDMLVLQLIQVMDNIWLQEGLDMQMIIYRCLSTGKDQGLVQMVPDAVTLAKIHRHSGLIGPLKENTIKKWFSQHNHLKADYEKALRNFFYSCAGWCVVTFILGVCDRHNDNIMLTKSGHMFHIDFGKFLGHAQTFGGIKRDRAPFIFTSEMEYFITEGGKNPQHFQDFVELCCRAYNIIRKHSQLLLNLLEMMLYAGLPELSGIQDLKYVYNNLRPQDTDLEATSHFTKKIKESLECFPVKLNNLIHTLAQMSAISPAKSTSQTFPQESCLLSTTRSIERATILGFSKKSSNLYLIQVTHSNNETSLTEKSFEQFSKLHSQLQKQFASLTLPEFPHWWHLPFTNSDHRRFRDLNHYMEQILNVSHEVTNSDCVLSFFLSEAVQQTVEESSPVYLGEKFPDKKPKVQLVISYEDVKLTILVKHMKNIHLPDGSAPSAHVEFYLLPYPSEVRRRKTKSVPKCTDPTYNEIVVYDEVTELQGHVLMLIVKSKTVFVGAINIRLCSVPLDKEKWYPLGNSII
Description: as §1

PRP4(h) = PRP4(h) (Homo sapiens (Human), UniProt Q13523); type: biochemical
Description: as §1

CK2α1(h) = CK2α1(h) (Homo sapiens (Human), UniProt P68400)
Description: as §1

Abl(m) = Abl(m) (Mus musculus (Mouse), UniProt P00520)
Description: as §1

MLK2(h) = MLK2(h) (Homo sapiens (Human), UniProt Q02779)
Description: (§2) The experimental method was as follows: the small molecule compound to be tested (0.001-10 μM), the protein kinase to be tested were incubated with a buffer containing substrate, 10 mM magnesium acetate, and [γ-^33P-ATP], the reaction was started by adding Mg\TPmix, after incubation for a period of time at room temperature, a 3% phosphate solution was added to the buffer to stop the reaction. Subsequently, 10 μL of the reaction mixture was quantitatively pipetted onto P30 filter paper, which was washed three times with 75 mM phosphate solution and then once with methanol. The P30 filter paper was air-dried and scintillation fluid was added for scintillation counting.

EphA1(h) = EphA1(h) (Homo sapiens (Human), UniProt P21709)
Description: as §1

PDGFRα(D842V)(h) = PDGFRα(D842V)(h) (Homo sapiens (Human), UniProt P16234, D842V)
Description: as §1

ROCK-I(h) = ROCK-I(h) (Homo sapiens (Human), UniProt Q13464)
Description: as §1

EphB2(h) = EphB2(h) (Homo sapiens (Human), UniProt P29323)
Description: as §1

PAK4(h) = PAK4(h) (Homo sapiens (Human), UniProt O96013)
Description: as §1

Ret(h) = Ret(h) (Homo sapiens (Human), UniProt P07949)
Description: as §1

Plk3(h) = Plk3(h) (Homo sapiens (Human), UniProt Q9H4B4)
Sequence of Plk3(h) (Q9H4B4 whole entry): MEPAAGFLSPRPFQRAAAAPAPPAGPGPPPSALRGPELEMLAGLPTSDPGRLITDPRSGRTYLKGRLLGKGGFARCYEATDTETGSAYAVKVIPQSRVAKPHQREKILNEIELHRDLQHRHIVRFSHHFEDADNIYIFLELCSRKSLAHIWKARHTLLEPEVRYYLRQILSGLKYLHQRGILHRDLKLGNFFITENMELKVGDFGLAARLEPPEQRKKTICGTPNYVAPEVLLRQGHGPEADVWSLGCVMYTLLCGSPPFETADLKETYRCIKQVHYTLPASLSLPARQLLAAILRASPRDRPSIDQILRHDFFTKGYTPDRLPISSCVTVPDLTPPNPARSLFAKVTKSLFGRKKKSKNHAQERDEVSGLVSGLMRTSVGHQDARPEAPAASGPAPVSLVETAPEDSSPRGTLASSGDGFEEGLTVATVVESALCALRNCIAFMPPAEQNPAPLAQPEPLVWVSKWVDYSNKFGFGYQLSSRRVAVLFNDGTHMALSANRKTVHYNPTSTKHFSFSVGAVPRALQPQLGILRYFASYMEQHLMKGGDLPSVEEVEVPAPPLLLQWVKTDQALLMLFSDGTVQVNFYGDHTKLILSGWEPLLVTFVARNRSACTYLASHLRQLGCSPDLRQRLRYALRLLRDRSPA
Description: as §1

Src(1-530)(h) = Src(1-530)(h) (Homo sapiens (Human), UniProt P12931)
Description: as §1

TAO1(h) = TAO1(h) (Homo sapiens (Human), UniProt Q7L7X3)
Sequence of TAO1(h) (Q7L7X3 whole entry): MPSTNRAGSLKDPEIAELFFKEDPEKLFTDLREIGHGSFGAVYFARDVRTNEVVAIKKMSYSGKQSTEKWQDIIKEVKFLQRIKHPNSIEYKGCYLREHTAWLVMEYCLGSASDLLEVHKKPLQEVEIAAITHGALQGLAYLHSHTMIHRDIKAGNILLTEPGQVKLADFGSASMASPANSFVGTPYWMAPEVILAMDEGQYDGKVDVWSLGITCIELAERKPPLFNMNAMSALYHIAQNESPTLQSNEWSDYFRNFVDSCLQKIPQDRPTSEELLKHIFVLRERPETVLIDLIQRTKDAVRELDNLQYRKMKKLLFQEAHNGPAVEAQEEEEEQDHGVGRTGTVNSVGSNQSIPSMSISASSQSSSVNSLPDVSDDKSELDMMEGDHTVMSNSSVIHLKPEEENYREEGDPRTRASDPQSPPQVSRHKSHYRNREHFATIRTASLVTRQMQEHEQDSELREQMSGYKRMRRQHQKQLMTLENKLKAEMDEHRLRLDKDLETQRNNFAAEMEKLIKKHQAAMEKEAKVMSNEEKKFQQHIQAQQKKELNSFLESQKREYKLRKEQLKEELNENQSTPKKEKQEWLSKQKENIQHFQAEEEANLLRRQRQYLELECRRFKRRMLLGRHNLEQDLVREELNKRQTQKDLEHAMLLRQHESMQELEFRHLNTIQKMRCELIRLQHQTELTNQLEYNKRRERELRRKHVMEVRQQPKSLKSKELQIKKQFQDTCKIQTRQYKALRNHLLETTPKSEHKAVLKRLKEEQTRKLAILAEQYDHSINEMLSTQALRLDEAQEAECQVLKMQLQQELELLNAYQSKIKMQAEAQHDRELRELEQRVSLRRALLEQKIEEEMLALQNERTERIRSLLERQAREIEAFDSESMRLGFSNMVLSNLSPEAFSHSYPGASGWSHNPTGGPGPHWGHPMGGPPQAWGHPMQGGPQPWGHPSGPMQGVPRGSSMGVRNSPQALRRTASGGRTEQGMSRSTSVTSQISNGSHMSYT
Description: as §1

TrkC(h) = TrkC(h) (Homo sapiens (Human), UniProt Q16288)
Description: as §1

SRPK2(h) = SRPK2(h) (Homo sapiens (Human), UniProt P78362)
Description: as §2

NLK(h) = NLK(h) (Homo sapiens (Human), UniProt Q9UBE8)
Description: as §1

CRIK(h) = CRIK(h) (Homo sapiens (Human), UniProt O14578)
Description: as §1

CaMKIIγ(h) = CaMKIIγ(h) (Homo sapiens (Human), UniProt Q13555)
Sequence of CaMKIIγ(h) (Q13555 whole entry): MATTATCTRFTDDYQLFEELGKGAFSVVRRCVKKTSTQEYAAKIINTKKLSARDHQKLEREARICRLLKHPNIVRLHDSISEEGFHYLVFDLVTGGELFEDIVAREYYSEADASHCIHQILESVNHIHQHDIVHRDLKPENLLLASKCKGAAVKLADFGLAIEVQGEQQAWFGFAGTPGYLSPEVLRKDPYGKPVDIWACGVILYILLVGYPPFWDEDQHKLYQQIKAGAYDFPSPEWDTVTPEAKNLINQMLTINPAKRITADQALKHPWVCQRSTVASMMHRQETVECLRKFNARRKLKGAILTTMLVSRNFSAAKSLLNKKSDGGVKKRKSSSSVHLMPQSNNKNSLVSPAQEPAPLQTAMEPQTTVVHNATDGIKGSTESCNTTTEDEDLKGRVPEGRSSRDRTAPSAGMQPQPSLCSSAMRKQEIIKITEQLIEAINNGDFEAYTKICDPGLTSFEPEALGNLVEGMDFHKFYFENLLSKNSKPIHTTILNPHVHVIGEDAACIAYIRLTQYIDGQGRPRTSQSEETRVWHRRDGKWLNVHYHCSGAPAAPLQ
Description: as §1

CHK1(h) = CHK1(h) (Homo sapiens (Human), UniProt O14757)
Description: as §1

Rsk2(h) = Rsk2(h) (Homo sapiens (Human), UniProt P51812)
Description: as §1

Flt3(D835Y)(h) = Flt3(D835Y)(h) (Homo sapiens (Human), UniProt P36888, D835Y)
Description: as §1

PKCγ(h) = PKCγ(h) (Homo sapiens (Human), UniProt P05129)
Description: as §1

DYRK2(h) = DYRK2(h) (Homo sapiens (Human), UniProt Q92630)
Description: as §1

FGFR1(V561M)(h) = FGFR1(V561M)(h) (Homo sapiens (Human), UniProt P11362, V561M)
Sequence of FGFR1(V561M)(h) (P11362 22-822 V561M): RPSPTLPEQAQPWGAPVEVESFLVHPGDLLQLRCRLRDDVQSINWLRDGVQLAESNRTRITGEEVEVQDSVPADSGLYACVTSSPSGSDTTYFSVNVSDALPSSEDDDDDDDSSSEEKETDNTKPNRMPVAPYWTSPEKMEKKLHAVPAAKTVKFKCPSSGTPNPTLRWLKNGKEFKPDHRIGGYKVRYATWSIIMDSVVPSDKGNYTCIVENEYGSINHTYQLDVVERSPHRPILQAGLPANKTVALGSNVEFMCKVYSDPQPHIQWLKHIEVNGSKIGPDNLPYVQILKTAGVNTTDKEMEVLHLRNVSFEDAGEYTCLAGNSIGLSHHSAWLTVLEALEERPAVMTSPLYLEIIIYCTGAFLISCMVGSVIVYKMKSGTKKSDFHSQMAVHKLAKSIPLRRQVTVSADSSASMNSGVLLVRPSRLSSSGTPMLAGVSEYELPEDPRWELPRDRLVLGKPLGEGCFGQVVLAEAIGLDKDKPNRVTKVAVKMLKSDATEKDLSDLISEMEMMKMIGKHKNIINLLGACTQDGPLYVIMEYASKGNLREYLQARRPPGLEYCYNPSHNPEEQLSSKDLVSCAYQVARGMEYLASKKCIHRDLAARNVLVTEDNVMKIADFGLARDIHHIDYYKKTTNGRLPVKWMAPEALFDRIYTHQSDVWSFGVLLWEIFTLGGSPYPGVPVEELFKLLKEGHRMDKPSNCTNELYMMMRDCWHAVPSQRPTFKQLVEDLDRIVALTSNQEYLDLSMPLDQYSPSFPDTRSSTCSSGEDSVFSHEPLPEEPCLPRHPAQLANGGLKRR
Description: as §1

HIPK2(h) = HIPK2(h) (Homo sapiens (Human), UniProt Q9H2X6)
Description: as §1

Sequence of PKCζ(h) (Q05513 whole entry): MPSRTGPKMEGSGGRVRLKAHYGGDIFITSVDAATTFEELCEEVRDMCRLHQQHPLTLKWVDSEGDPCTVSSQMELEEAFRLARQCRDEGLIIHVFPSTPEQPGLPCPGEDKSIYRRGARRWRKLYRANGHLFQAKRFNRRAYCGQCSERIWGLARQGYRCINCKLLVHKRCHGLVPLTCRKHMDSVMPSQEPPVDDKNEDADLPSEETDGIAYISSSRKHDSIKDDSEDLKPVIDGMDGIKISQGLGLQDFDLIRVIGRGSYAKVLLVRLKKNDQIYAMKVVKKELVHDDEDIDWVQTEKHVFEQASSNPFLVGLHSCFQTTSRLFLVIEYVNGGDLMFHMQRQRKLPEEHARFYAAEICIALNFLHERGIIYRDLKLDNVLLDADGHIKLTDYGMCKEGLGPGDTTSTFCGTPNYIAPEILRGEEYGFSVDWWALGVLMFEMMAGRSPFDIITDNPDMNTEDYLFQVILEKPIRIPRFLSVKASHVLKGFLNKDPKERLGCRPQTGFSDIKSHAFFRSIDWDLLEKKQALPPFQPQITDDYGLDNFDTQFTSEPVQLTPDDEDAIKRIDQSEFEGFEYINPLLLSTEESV

SMILES: C[C@H](NC(=O)c1cn(C)c2ccc(-c3ccn4nc(NC(=O)C5CC5)nc4c3)cc12)c1cccc(F)c1 [Compound 94, (S)-5-(2-(cyclopropanecarboxamido)-[1,2,4]triazolo[1,5-a]pyridin-7-yl)-N-(1-(3-fluorophenyl)ethyl)-1-methyl-1H-indole-3-carboxamide]
- Inhibition ratio/% (PTK5(h)): 48%
- Inhibition ratio/% (PKCζ(h)): −2%
- Inhibition ratio/% (JAK2(h)): 45%
- Inhibition ratio/% (CDKL2(h)): 62%
- Inhibition ratio/% (LOK(h)): 25%
- Inhibition ratio/% (PI3KC2g(h)): 24%
- Inhibition ratio/% (PRP4(h)): 5%
- Inhibition ratio/% (CK2α1(h)): 58%
- Inhibition ratio/% (Abl(m)): 61%
- Inhibition ratio/% (MLK2(h)): 99%
- Inhibition ratio/% (EphA1(h)): −12%
- Inhibition ratio/% (PDGFRα(D842V)(h)): 37%
- Inhibition ratio/% (ROCK-I(h)): −10%
- Inhibition ratio/% (EphB2(h)): 48%
- Inhibition ratio/% (PAK4(h)): 5%
- Inhibition ratio/% (Ret(h)): 50%
- Inhibition ratio/% (Plk3(h)): 12%
- Inhibition ratio/% (Src(1-530)(h)): 20%
- Inhibition ratio/% (TAO1(h)): 50%
- Inhibition ratio/% (TrkC(h)): 28%
- Inhibition ratio/% (SRPK2(h)): −16%
- Inhibition ratio/% (NLK(h)): 16%
- Inhibition ratio/% (CRIK(h)): −7%
- Inhibition ratio/% (CaMKIIγ(h)): −15%
- Inhibition ratio/% (CHK1(h)): −2%
- Inhibition ratio/% (Rsk2(h)): 4%
- Inhibition ratio/% (Flt3(D835Y)(h)): 12%
- Inhibition ratio/% (PKCγ(h)): 47%
- Inhibition ratio/% (DYRK2(h)): 2%
- Inhibition ratio/% (FGFR1(V561M)(h)): 45% and 30%
- Inhibition ratio/% (HIPK2(h)): 36%

SMILES: C[C@H](NC(=O)c1c[nH]c2ccc(-c3ccc4nc(NC(=O)C5CC5)sc4c3)cc12)c1cccc(F)c1 [Compound 34, (S)-5-(2-(cyclopropanecarboxamido)benzo[d]thiazol-6-yl)-N-(1-(3-fluorophenyl)ethyl)-1H-indole-3-carboxamide]
- Inhibition ratio (PTK5(h)): 51%
- Inhibition ratio (PKCζ(h)): 10%
- Inhibition ratio (JAK2(h)): 11%
- Inhibition ratio (CDKL2(h)): 68%
- Inhibition ratio (LOK(h)): 85%
- Inhibition ratio (PI3KC2g(h)): 76%
- Inhibition ratio (PRP4(h)): 4%
- Inhibition ratio (CK2α1(h)): 7%
- Inhibition ratio (Abl(m)): 99%
- Inhibition ratio (MLK2(h)): 99%
- Inhibition ratio (EphA1(h)): 3%
- Inhibition ratio (PDGFRα(D842V)(h)): 56%
- Inhibition ratio (ROCK-I(h)): 15%
- Inhibition ratio (EphB2(h)): 42%
- Inhibition ratio (PAK4(h)): 10%
- Inhibition ratio (Ret(h)): 96%
- Inhibition ratio (Plk3(h)): 9%
- Inhibition ratio (Src(1-530)(h)): 54%
- Inhibition ratio (TAO1(h)): 24%
- Inhibition ratio (TrkC(h)): 104%
- Inhibition ratio (SRPK2(h)): 17%
- Inhibition ratio (NLK(h)): 25%
- Inhibition ratio (CRIK(h)): 5%
- Inhibition ratio (CaMKIIγ(h)): 2%
- Inhibition ratio (CHK1(h)): 2%
- Inhibition ratio (Rsk2(h)): 1%
- Inhibition ratio (Flt3(D835Y)(h)): 82%
- Inhibition ratio (PKCγ(h)): 7%
- Inhibition ratio (DYRK2(h)): 5%
- Inhibition ratio (FGFR1(V561M)(h)): 80%
- Inhibition ratio (HIPK2(h)): 66%
